Source: patent US12629363B2, “Prophylaxis and treatment of angioedema” (PHARVARIS GMBH, priority 2020, dated 2026)
Like-named read-outs stand apart in the source and are kept apart here.

Columns and labels:
rat B2 receptor = target: T1, rat B2 receptor (Rattus norvegicus, UniProt P25023); assay: Antagonist potency in cells expressing rat B2 receptor; format: cell-based; conditions: compared with human B2 receptor
T1 construct: expressed in transfected cells
T1 sequence (P25023 1-396): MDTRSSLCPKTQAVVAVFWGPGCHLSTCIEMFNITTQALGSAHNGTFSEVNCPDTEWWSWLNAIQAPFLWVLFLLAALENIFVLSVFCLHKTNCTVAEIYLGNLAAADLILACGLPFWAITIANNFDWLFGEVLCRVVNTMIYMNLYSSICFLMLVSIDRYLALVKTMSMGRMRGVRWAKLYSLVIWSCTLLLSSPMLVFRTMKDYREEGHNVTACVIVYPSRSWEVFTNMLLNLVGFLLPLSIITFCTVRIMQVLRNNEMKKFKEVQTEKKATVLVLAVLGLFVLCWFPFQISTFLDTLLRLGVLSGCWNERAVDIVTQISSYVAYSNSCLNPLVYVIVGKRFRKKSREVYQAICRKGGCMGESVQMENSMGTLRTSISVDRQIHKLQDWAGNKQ
Text: (§1) The bradykinin B2 receptor is well known for its species selective pharmacology (Paquet et al., Br. J. Pharmacol. (126), 1083-1090, 1999 (DOI: 10.1038/sj.bjp.0702403); Burgess et al., Br. J. Pharmacol. (129), 77-86, 2000 (DOI: 10.1038/sj.bjp.0703012)). […] Pharmacol. 11:916; DOI: 10.3389/fphar.2020.00916.

mouse B2 receptor = target: T2, mouse B2 receptor (Mus musculus, UniProt P32299); assay: Antagonist potency in cells expressing mouse B2 receptor; format: cell-based; conditions: compared with human B2 receptor
T2 construct: expressed in transfected cells
T2 sequence (P32299 1-392): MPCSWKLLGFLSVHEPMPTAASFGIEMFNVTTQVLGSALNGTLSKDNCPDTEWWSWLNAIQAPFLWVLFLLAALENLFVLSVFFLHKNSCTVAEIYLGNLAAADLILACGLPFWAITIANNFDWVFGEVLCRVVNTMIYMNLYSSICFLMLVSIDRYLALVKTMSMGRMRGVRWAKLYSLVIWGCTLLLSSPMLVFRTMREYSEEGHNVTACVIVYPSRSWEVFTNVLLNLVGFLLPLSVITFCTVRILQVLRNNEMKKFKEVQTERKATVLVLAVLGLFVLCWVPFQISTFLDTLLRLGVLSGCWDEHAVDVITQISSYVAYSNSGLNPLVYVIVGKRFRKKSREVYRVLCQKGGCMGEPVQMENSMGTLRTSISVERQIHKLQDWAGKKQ
Text: as §1

[1] = Ascending dose study 22-50 mg in healthy volunteers, safety and tolerability (Example 4); format: in vivo, human
[2] = Single ascending dose study in healthy volunteers, plasma PK (Example 2); format: in vivo, human; conditions: for concentration at 0.25 h: read-out: C0.25h; for Vd/F: read-out: Vz/F
[3] = target: T3, endogenous human B2 receptors (Homo sapiens, UniProt P30411); assay: Antagonist potency at endogenous human B2 receptors
T3 sequence (P30411 1-391): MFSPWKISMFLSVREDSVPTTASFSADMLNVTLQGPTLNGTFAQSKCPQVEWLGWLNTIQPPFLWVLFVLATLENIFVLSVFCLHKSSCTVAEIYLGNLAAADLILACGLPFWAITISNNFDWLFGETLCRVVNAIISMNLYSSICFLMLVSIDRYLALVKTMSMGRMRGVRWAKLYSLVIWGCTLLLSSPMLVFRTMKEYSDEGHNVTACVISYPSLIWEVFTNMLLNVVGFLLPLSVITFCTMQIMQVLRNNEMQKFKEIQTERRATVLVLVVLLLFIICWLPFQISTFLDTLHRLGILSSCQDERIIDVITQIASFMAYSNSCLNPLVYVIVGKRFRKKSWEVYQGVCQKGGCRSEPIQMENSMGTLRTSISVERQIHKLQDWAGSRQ

clinical = conditions: human, in vivo, po, 12 mg
Method: Thirteen healthy subjects were enrolled and completed the study.
On Days 4 to 8, subjects received once daily oral doses of 200 mg itraconazole one hour before start of a standard meal.
Trough plasma concentrations of itraconazole were determined by taking predose plasma samples on Days 4-7, to document exposure to itraconazole.

[4] = Population 2-compartment PK model with oral absorption (BK challenge study); format: in vivo, human; conditions: population PK model parameter estimate (CV %)
Method: A PK/PD analysis using the same approach as in the icatibant evaluation was conducted. […] PK was analyzed using a two-compartment body model with first-order oral absorption and a lag time; results are shown in Table 4. For the PK/PD model a simple Emax-model with a direct link was utilized. The PK/PD model was used to simulate PK profiles (N=1000) and calculate probability of durations of effect as well as to visualize effect-time profiles; see FIGS. 4 and 5.

[5] = 22 mg, HCHF breakfast vs fasted
[6] = human, plasma, oral, 1 mg, fasted, mean
[7] = human, plasma, oral, 2 mg, fasted, mean
[8] = human, plasma, oral, 4.5 mg, fasted, mean
[9] = human, plasma, oral, 12 mg, fasted, mean
[10] = human, plasma, oral, 22 mg, after HCHF breakfast, mean
[11] = human, plasma, oral, 22 mg, fasted, mean

[2H][C@@](C)(NC(=O)COC(F)F)c1cc(F)cc(Cl)c1COc1cccc2c(-c3ncnn3C)cc(C)nc12 [compound of formula (I)]
fold less potent in antagonizing the rat B2 receptor (rat B2 receptor): more than 1000 fold | fold less potent towards the mouse B2 receptor (mouse B2 receptor): more than 3000 fold | changes in vital signs, laboratory, or ECG parameters vs placebo ([1]; 22-50 mg single oral doses): no clinically significant changes | serious adverse effects ([1]; 22-50 mg single oral doses): no serious adverse effects reported | safety and tolerability ([1]; doses up to 40 mg under fasting and 50 mg under fed conditions): safe and well tolerated | CL/F ([2]; 1 mg, fasted, mean): 42.3 L/h | CL/F ([2]; 2 mg, fasted, mean): 33.8 L/h | CL/F ([2]; 4.5 mg, fasted, mean): 37.6 L/h | CL/F ([2]; 12 mg, fasted, mean): 40.9 L/h | time therapeutically effective plasma levels maintained ([2]; 22 mg, HCHF breakfast cohort): more than 12 h | time to reach therapeutically effective plasma levels ([2]; 22 mg, HCHF breakfast cohort): ≤ 15 min | higher AUClast after HCHF breakfast [2, 5]: 49% | lower Cmax after HCHF breakfast [2, 5]: 32% | CL/F ([2]; 22 mg, after HCHF breakfast, mean): 25.3 L/h | Mean (±SD) C12h ([2]; 22 mg, fasted): 8.34 ± 4.24 ng/mL | Mean C24h ([2]; 22 mg, fasted): 1.12 ± 0.786 ng/mL | CL/F ([2]; 22 mg, fasted, mean): 31.5 L/h | time to reach therapeutic efficacious threshold plasma concentration ([2]; all doses): ≤ 15 min | time plasma levels maintained at therapeutic efficacious threshold ([2]; doses of 12 mg and 22 mg): approximately 12 h | Tmax ([2]; human, plasma, oral, 1 mg to 22 mg, fasting, read-out: Median tmax in the dose range): 0.5 to 1 h | Tmax ([2]; human, plasma, oral, 1 mg to 22 mg, fasting, read-out: range of individual tmax values): 0.25 to 1.02 h | AUC(0-t) [2, 6]: 33 ng·h/mL | Cmax [2, 6]: 11.1 ng/mL | concentration at 0.25 h [2, 6]: 5.99 ng/mL | concentration at 12 h ([2]; human, plasma, oral, 1 mg, fasted, mean, read-out: C12h): 0.528 ng/mL | Vd/F [2, 6]: 190 L | half-life ([2]; human, plasma, oral, 1 mg, fasted, mean, read-out: t1/2 (converted)): 3.49 h | Tmax ([2]; human, plasma, oral, 1 mg, fasted, median, read-out: tmax): 0.5 h | AUC(0-t) [2, 7]: 66 ng·h/mL | Cmax [2, 7]: 19.8 ng/mL | concentration at 0.25 h [2, 7]: 12.9 ng/mL | concentration at 12 h ([2]; human, plasma, oral, 2 mg, fasted, mean, read-out: C12h): 0.81 ng/mL | Vd/F [2, 7]: 181 L | half-life ([2]; human, plasma, oral, 2 mg, fasted, mean, read-out: t1/2 (converted)): 4.26 h | Tmax ([2]; human, plasma, oral, 2 mg, fasted, median, read-out: tmax): 0.75 h | AUC(0-t) [2, 8]: 129 ng·h/mL | Cmax [2, 8]: 32.9 ng/mL | concentration at 0.25 h [2, 8]: 13 ng/mL | concentration at 12 h ([2]; human, plasma, oral, 4.5 mg, fasted, mean, read-out: C12h): 1.93 ng/mL | Vd/F [2, 8]: 222 L | half-life ([2]; human, plasma, oral, 4.5 mg, fasted, mean, read-out: t1/2 (converted)): 4.36 h | Tmax ([2]; human, plasma, oral, 4.5 mg, fasted, median, read-out: tmax): 1 h | AUC(0-t) [2, 9]: 369 ng·h/mL | Cmax [2, 9]: 97.3 ng/mL | concentration at 0.25 h [2, 9]: 60.3 ng/mL | concentration at 12 h ([2]; human, plasma, oral, 12 mg, fasted, mean, read-out: C12h): 5.58 ng/mL | Vd/F [2, 9]: 235 L | half-life ([2]; human, plasma, oral, 12 mg, fasted, mean, read-out: t1/2 (converted)): 4.25 h | Tmax ([2]; human, plasma, oral, 12 mg, fasted, median, read-out: tmax): 0.5 h | Tmax ([2]; human, plasma, oral, 22 mg, HCHF breakfast vs fasted, read-out: delay of median tmax after HCHF breakfast): ~2 h | AUC(0-t) [2, 10]: 1020 ng·h/mL | Cmax [2, 10]: 145 ng/mL | concentration at 0.25 h [2, 10]: 48.3 ng/mL | concentration at 12 h ([2]; human, plasma, oral, 22 mg, after HCHF breakfast, mean, read-out: C12h): 19.6 ng/mL | Vd/F [2, 10]: 180 L | half-life ([2]; human, plasma, oral, 22 mg, after HCHF breakfast, mean, read-out: t1/2 (converted)): 5.31 h | Tmax ([2]; human, plasma, oral, 22 mg, after HCHF breakfast, median, read-out: tmax): 3 h | AUC(0-t) [2, 11]: 681 ng·h/mL | Cmax [2, 11]: 213 ng/mL | concentration at 0.25 h [2, 11]: 143 ng/mL | concentration at 12 h ([2]; human, plasma, oral, 22 mg, fasted, mean, read-out: C12h): 8.34 ng/mL | Vd/F [2, 11]: 252 L | half-life ([2]; human, plasma, oral, 22 mg, fasted, mean, read-out: t1/2 (converted)): 5.61 h | Tmax ([2]; human, plasma, oral, 22 mg, fasted, median, read-out: tmax): 0.75 h | concentration at 12 h ([2]; human, plasma, oral, 22 mg, fed (HCHF breakfast), read-out: Mean (±SD) C12h): 19.6 ± 10.7 ng/mL | concentration at 24 h ([2]; human, plasma, oral, 22 mg, fed (HCHF breakfast), read-out: Mean C24h): 5.39 ± 5.47 ng/mL | half-life ([2]; human, plasma, po, single oral doses 1-22 mg, read-out: mean t1/2 between doses): 3.5 to 5.6 h | dose proportionality of PK (Cmax, AUClast, AUCinf) ([2]; single oral dose 1 mg to 22 mg, fasting): Dose proportional PK | antagonist potency at endogenous human B2 receptors [3]: 350 pM | Tmax (clinical): 0.5 to 1 h | half-life (clinical): 4.31 h | CL/F apparent clearance [4]: 34.5 (5.9%) L/h | Ka first order absorption rate constant [4]: 7.97 (25.1%) 1/h | Q/F apparent inter-compartmental clearance [4]: 10.7 (15.8%) L/h | Tlag lag time [4]: 0.181 (9.9%) h | V2/F apparent volume for the central compartment [4]: 101 (4.5%) L | V3/F apparent volume for the peripheral compartment [4]: 35.9 (10.7%) L
